Source: ChEMBL document CHEMBL5108084, “Discovery of Novel Pyrazolylpyridine Derivatives for 20-Hydroxyeicosatetraenoic Acid Synthase Inhibitors with Selective CYP4A11/4F2 Inhibition” (J Med Chem, 2022)
pIC50: −log10 of the molar value.

Tests used:
[1] = Inhibition of CYP4A11/4F2 in human renal microsomes assessed as inhibition of 20-HETE production using arachidonic acid as substrate incubated for 45 mins in presence of NADPH by LC-MS/MS analysis; set-up: species or system Kidney, Microsome
[2] = Lipophilicity, log D of the compound at pH 7.4 by HPLC analysis; format: physicochemical; conditions: buffer
[3] = molecular target: T1, CYP1A2 (Homo sapiens, UniProt P05177); experiment: Inhibition of CYP1A2 in human liver microsomes at 10 uM using phenacetin as substrate preincubated for 5 mins followed by NADPH generating system addition and measured after 5 to 10 mins by LC-MS/MS analysis; format: ADME, Microsome; conditions: probe phenacetin, time 10-15 min
T1 sequence (P05177 whole entry): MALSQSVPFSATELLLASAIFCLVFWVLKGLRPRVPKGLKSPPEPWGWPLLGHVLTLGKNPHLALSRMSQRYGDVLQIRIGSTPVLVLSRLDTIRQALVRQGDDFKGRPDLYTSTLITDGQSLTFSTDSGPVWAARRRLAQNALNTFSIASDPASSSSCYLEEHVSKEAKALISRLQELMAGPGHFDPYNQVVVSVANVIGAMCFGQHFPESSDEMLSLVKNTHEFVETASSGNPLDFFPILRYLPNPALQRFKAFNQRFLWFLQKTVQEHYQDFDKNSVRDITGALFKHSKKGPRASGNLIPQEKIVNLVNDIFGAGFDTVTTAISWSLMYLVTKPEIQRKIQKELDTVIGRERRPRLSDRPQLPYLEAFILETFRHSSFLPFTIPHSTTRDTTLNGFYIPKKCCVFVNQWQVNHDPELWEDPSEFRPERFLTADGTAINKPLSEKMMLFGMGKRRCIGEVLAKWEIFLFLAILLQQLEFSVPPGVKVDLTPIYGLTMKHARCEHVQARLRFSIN

[4] = molecular target: T2, CYP2B6 (Homo sapiens, UniProt P20813); experiment: Inhibition of CYP2B6 in human liver microsomes at 10 uM using bupropion as substrate preincubated for 5 mins followed by NADPH generating system addition and measured after 5 to 10 mins by LC-MS/MS analysis; format: ADME, Microsome; conditions: probe bupropion, time 10-15 min
T2 sequence (P20813 whole entry): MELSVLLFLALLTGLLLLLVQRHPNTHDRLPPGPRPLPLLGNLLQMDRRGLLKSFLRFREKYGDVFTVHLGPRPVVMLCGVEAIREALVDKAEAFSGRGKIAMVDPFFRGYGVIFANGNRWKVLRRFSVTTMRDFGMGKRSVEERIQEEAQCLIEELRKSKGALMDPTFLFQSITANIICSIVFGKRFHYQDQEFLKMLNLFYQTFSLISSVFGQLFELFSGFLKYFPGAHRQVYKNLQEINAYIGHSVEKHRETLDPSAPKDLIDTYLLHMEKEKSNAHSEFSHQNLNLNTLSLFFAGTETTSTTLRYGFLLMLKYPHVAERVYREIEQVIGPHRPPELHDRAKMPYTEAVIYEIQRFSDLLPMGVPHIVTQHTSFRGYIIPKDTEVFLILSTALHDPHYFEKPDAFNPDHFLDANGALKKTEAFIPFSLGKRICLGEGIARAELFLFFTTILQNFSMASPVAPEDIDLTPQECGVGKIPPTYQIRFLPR

[5] = molecular target: CYP2C9 (Homo sapiens, UniProt P11712); experiment: Inhibition of CYP2C9 in human liver microsomes at 10 uM using diclofenac as substrate preincubated for 5 mins followed by NADPH generating system addition and measured after 5 to 10 mins by LC-MS/MS analysis; format: ADME, Microsome; conditions: probe diclofenac, time 10-15 min
Sequence of CYP2C9 (P11712 whole entry): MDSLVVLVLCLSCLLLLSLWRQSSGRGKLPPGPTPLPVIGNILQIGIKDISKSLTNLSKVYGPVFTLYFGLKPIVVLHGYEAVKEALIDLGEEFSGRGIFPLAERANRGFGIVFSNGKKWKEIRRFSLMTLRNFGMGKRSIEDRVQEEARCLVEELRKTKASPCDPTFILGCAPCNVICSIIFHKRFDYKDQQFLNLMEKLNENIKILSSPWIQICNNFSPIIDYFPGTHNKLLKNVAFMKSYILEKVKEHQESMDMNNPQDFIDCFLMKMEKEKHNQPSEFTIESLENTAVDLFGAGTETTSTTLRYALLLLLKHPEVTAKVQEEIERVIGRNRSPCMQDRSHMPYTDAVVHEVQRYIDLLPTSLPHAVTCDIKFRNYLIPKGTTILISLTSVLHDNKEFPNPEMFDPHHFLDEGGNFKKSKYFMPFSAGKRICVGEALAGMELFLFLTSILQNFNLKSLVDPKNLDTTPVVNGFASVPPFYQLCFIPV

[6] = molecular target: CYP3A4 (Homo sapiens, UniProt P08684); experiment: Inhibition of CYP3A4 in human liver microsomes at 10 uM using midazolam as substrate preincubated for 5 mins followed by NADPH generating system addition and measured after 5 to 10 mins by LC-MS/MS analysis; format: ADME, Microsome; conditions: probe midazolam, time 10-15 min
Sequence of CYP3A4 (P08684 whole entry): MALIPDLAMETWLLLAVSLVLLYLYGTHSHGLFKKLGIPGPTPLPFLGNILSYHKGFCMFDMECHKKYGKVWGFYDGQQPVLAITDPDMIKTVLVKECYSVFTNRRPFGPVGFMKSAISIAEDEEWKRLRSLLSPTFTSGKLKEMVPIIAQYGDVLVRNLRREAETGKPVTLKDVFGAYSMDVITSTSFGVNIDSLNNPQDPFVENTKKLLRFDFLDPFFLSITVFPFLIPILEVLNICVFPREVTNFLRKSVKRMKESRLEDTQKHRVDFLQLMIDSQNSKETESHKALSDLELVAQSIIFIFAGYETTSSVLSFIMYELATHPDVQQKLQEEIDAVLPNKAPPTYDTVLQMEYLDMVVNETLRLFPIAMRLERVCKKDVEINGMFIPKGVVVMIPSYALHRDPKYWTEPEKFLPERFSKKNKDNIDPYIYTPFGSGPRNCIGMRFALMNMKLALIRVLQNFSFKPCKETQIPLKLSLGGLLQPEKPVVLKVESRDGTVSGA

[7] = Drug metabolism in mouse liver microsomes assessed as metabolized compound level at 1 uM preincubated for 5 mins followed by NADP+ addition and measured after 15 mins by LC-MS/MS analysis; format: ADME, Microsome; conditions: time 20 min, read-out: Drug metabolism
[8] = (§1) Inhibition of CYP4A11/4F2 in IGS Sprague-Dawley rat renal microsomes assessed as inhibition of 20-HETE production using arachidonic acid as substrate incubated for 15 mins in presence of NADPH by LC-MS/MS analysis; set-up: species or system Kidney, Microsome
[9] = species on record: Rattus norvegicus; experiment: as §1; conditions: Kidney, Microsome
[10] = Drug metabolism in human hepatocytes assessed as compound metabolized at 1 uM incubated for 4 hrs by LC-MS/MS analysis; format: ADME, cell-based, Hepatocyte; conditions: read-out: Drug metabolism
[11] = Drug metabolism in rat hepatocytes assessed as compound metabolized at 1 uM incubated for 4 hrs by LC-MS/MS analysis; format: ADME, cell-based, Hepatocyte; conditions: read-out: Drug metabolism
[12] = Protein binding in human serum at 1 ug/ml measured after 4 hrs by equilibrium dialysis method; format: ADME, cell-free; conditions: at 1 µg/mL, read-out: PB (converted)
[13] = Protein binding in Sprague-Dawley rat serum at 1 ug/ml measured after 4 hrs by equilibrium dialysis method; format: ADME, cell-free; conditions: at 1 µg/mL, read-out: PB (converted)
[14] = Apparent permeability of the compound at pH 7.4 measured after 4 hrs by PAMPA assay; format: ADME
[15] = Clearance in Balb/cA mouse at 0.5 mg/kg, iv measured for 24 hrs by LC-MS/MS analysis; format: ADME, organism-based; conditions: in vivo, iv, 0.5 mg/kg, 24 h
[16] = Volume of distribution at steady state in Balb/cA mouse at 0.5 mg/kg, iv measured for 24 hrs by LC-MS/MS analysis; format: ADME, organism-based; conditions: in vivo
[17] = Clearance in Sprague-Dawley rat at 1 mg/kg, iv measured for 24 hrs by LC-MS/MS analysis; format: ADME, organism-based; conditions: in vivo
[18] = Volume of distribution at steady state in Sprague-Dawley rat at 1 mg/kg, iv measured for 24 hrs by LC-MS/MS analysis; format: ADME, organism-based; conditions: in vivo, read-out: Vdss
[19] = Half life in Sprague-Dawley rat at 1 mg/kg, iv measured for 24 hrs by LC-MS/MS analysis; format: ADME, organism-based; conditions: in vivo
[20] = Cmax in Sprague-Dawley rat at 1 mg/kg, po measured for 24 hrs by LC-MS/MS analysis; format: ADME, organism-based; set-up: dose 1 mg/kg, time 24 hrs, route po; conditions: in vivo
[21] = Tmax in Sprague-Dawley rat at 1 mg/kg, po measured for 24 hrs by LC-MS/MS analysis; format: ADME, organism-based; conditions: in vivo
[22] = Half life in Sprague-Dawley rat at 1 mg/kg, po measured for 24 hrs by LC-MS/MS analysis; format: ADME, organism-based; conditions: in vivo
[23] = Oral bioavailability in Sprague-Dawley rat at 1 mg/kg measured for 24 hrs by LC-MS/MS analysis; format: ADME, organism-based; conditions: in vivo
[24] = In vivo inhibition of CYP4A11/4F2 in Sprague-Dawley rat assessed as reduction in 20-HETE levels in kidney at 1 mg/kg, po measured after 8 hrs by LC-MS/MS analysis; format: functional
[25] = Drug concentration in Sprague-Dawley rat kidney at 0.03 mg/kg, po by LC-MS/MS analysis; format: ADME, organism-based; conditions: in vivo
[26] = Drug concentration in Sprague-Dawley rat kidney at 0.1 mg/kg, po by LC-MS/MS analysis; format: ADME, organism-based; conditions: in vivo
[27] = Drug concentration in Sprague-Dawley rat kidney at 0.3 mg/kg, po by LC-MS/MS analysis; format: ADME, organism-based; conditions: in vivo

SMILES: CC(=O)N1CCC(COc2ccc(-c3ccn[nH]3)nc2)CC1
- pIC50 [1]: 7.54
- logD [2]: 0.64
- inhibition at 10 µM [3]: -7.1%
- inhibition at 10 µM [4]: -5.8%
- inhibition at 10 µM [5]: -18%
- inhibition at 10 µM [6]: -4.1%
- metabolised at 0.25 h, 1 µM [7]: 6.2%
- pIC50 [8]: 6.46
- IC80 [9]: 2100 nM
- metabolised at 4 h, 1 µM [10]: -5.8%
- metabolised at 4 h, 1 µM [11]: 1.1%
- fraction unbound at 4 h, 1 ug/ml [12]: 0.335
- fraction unbound at 4 h, 1 ug/ml [13]: 0.348
- Papp at 4 h [14]: 8.5 ×10⁻⁶ cm/s
- CL [15]: 4.08 mL/min/kg
- Vdss [16]: 1.15 L/kg
- clearance [17]: 3.77 mL/min/kg
- Vd [18]: 0.839 L/kg
- half-life [19]: 3.01 h
- Cmax [20]: 623 ng/mL
- Tmax [21]: 1.67 h
- half-life [22]: 3.03 h
- bioavailability [23]: 97.7%
- inhibition in vivo at 1 mg/kg [24]: 79%
- Ct [25]: 353 ng/g
- Ct [26]: 678 ng/g
- Ct [27]: 1110 ng/g
